Values joined by “and” are separate entries in the source; they are usually repeats but may differ in a detail not shown here. Identical values can stand only once.
Tested on: 242566-281-R-J2-PDC complex spheroid viability
Test: Anticancer human tumor 242566-281-R-J2-PDC patient-derived pancreatic carcinoma cell line growth inhibition [CLK]
Conditions: for viability, T/C: stronger effect = lower value
Source text: A high-throughput screen of multi-cell type tumor spheroids was designed to identify active combinations of […] and targeted small molecules. Complex spheroids include a stromal component modeled by human endothelial cells (HUVEC) and fibroblasts modeled by human mesenchymal stem cells (MSCs). The concentration ranges selected for each drug and investigational agent were based upon clinically achievable concentrations if the clinical Cmax of the agent was known.
Compounds. The drugs and investigational agents: cirtuvivint (SM08502; NSC835563), CC-671 (NSC850746), vemurafenib (NSC761431), tapotoclax (NSC804041), sotorasib (NSC818433), adagrasib (NSC831453), MRTX-1133 (NSC836407), BAY2416964 (NSC825713), copanlisib (NSC816437), inavolisib (NSC800729), abemaciclib (NSC768073), osimertinib (NSC779217), entinostat (NSC756642), eltanexor (KPT-8602, NSC794443), venetoclax (NSC766270), ceralasertib (NSC777638), bortezomib (NSC756655), olaparib (NSC753686), talazoparib (NSC767125), alisertib (NSC759677), peposertib (NSC802822), gemcitabine (NSC613327), 5-fluorouracil (NSC19893), SN-38 (NSC673596), oxaliplatin (NSC266046), paclitaxel (NSC125973), and doxorubicin (NSC123127), were obtained from the National Cancer Institute (NCI) Developmental Therapeutics Program Chemical Repository. The FDA-approved anticancer drug set is available from the Developmental Therapeutics Program at https://dtp.cancer.gov/organization/dscb/obtaining/available plates.htm. […] The stock solutions were prepared in dimethyl sulfoxide (DMSO, Sigma-Aldrich, St. Louis, MO, cat. D2650), except for the platinum complexes which were prepared in saline (Quality Biological, Gaithersburg, MD, cat. 114-055-101), at 800-fold the tested concentration and stored at -70 degrees C prior to their use. All drugs and investigational agents were tested over a range starting from a high concentration at or near the clinical Cmax and decreasing in half-log increments. If the clinical Cmax for an agent had not been determined, the highest concentration tested was 10 microM.
Cell Culture. All cells were maintained in an incubator at 37 degrees C and 5% CO2 with 95% humidity. The PDC lines were cultured according to standard operating procedures established by the NCI PDMR. Briefly, all PDCs were thawed and cultured in Matrigel-coated flasks prepared with a working solution of 1X Ham's F-12 nutrient mix, without supplementation (Invitrogen, Waltham, MA, cat. 11765054), 100 U/mL penicillin-streptomycin (Invitrogen, cat. 15140122), and 2.5% Matrigel (Corning Inc., Corning, NY, cat. 354248) for the first three passages. The 947758-054-R-J2-PDC line was cultured in 6B/Colon 1A media, which includes advanced DMEM/F-12 (Thermo Fisher Scientific, cat. 12634028), 10 mM HEPES (Thermo Fisher Scientific, cat. 15630080), 1X GlutaMAX supplement (Thermo Fisher Scientific, cat. 35050061), 0.1 mg/mL primocin (InvivoGen, cat. ant-pm-2), 10% defined fetal bovine serum, heat inactivated (HyClone Laboratories Inc., cat. SH30070.03HI), 1.25 mM N-Acetyl-L-cysteine (Sigma-Aldrich, cat. A9165), 10 mM nicotinamide (Sigma-Aldrich, cat. N0636), 1X B-27 supplement (Thermo Fisher Scientific, cat. 17504044), 1X N-2 supplement (Thermo Fisher Scientific, cat. 17502048), and 10 microM Y-27632 dihydrochloride (Tocris Bioscience, cat. 1254). The 876862-298-R-J1-PDC was cultured in 6E media, which includes all 6B/Colon 1A media components plus 50% L-WRN conditioned media (ATCC, cat. CRL-3276), 50 ng/mL recombinant human EGF recombinant protein (hEGF; Thermo Fisher Scientific, cat. PHG0311), 10 ng/mL recombinant human fibroblast growth factor 10 (hGFG-10; PeproTech, cat. 100-26), 1 ng/mL recombinant human fibroblast growth factor 2 (hFGF-2; PeproTech, cat. 100-18B), and 1 µM prostaglandin E2 (PGE2; Tocris, cat. 2296). The 227483-062-R1-J1-PDC line was cultured in Panc media, containing all 6E components except hFGF-2, with the addition of 500 nM SB-431542 (Selleckchem, cat. S1067) and 10 nM gastrin (Tocris, cat. 3006). […]

[1] = curve of first compound, second compound 0.0316 µM
[2] = curve of first compound, second compound 0.1 µM
[3] = curve of first compound, second compound 0.316 µM
[4] = curve of first compound, second compound 1 µM
[5] = curve of first compound, second compound 3.16 µM
[6] = curve of first compound, second compound 10 µM
[7] = second compound 0.0316 µM, first compound 0.00316 µM
[8] = second compound 0.0316 µM, first compound 0.01 µM
[9] = second compound 0.0316 µM, first compound 0.0316 µM
[10] = second compound 0.0316 µM, first compound 0.1 µM
[11] = second compound 0.1 µM, first compound 0.00316 µM
[12] = second compound 0.1 µM, first compound 0.01 µM
[13] = second compound 0.1 µM, first compound 0.0316 µM
[14] = second compound 0.1 µM, first compound 0.1 µM
[15] = second compound 0.316 µM, first compound 0.00316 µM
[16] = second compound 0.316 µM, first compound 0.01 µM
[17] = second compound 0.316 µM, first compound 0.0316 µM
[18] = second compound 0.316 µM, first compound 0.1 µM
[19] = second compound 1 µM, first compound 0.00316 µM
[20] = second compound 1 µM, first compound 0.01 µM
[21] = second compound 1 µM, first compound 0.0316 µM
[22] = second compound 1 µM, first compound 0.1 µM
[23] = second compound 3.16 µM, first compound 0.00316 µM
[24] = second compound 3.16 µM, first compound 0.01 µM
[25] = second compound 3.16 µM, first compound 0.0316 µM
[26] = second compound 3.16 µM, first compound 0.1 µM
[27] = second compound 10 µM, first compound 0.00316 µM
[28] = second compound 10 µM, first compound 0.01 µM
[29] = second compound 10 µM, first compound 0.0316 µM
[30] = second compound 10 µM, first compound 0.1 µM
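Further: spheroids exposed to compounds for 7 days before readout.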
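Wherever viability, T/C is given: 100% = DMSO vehicle control wells.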

## Cn1ncnc1[C@H]1c2n[nH]c(=O)c3cc(F)cc(c23)N[C@@H]1c1ccc(F)cc1 + CN1CCN(c2cc(C(=O)Nc3cc4cc(-c5cnn(C)c5)ccc4cn3)ccn2)CC1
[1]
  IC50: > 100 nM
[2]
  IC50: > 100 nM
[3]
  IC50: < 0.316 nM
[4]
  IC50: < 0.316 nM
[5]
  IC50: < 0.316 nM
[6]
  IC50: < 0.316 nM
Second compound 0.0316 µM, first compound 0.000316 µM
  viability, T/C: 106%
Second compound 0.0316 µM, first compound 0.001 µM
  viability, T/C: 96.4%
[7]
  viability, T/C: 99.5%
[8]
  viability, T/C: 107%
[9]
  viability, T/C: 97.9%
[10]
  viability, T/C: 88%
Second compound 0.1 µM, first compound 0.000316 µM
  viability, T/C: 87.7%
Second compound 0.1 µM, first compound 0.001 µM
  viability, T/C: 87.9%
[11]
  viability, T/C: 89.1%
[12]
  viability, T/C: 86.6%
[13]
  viability, T/C: 84.8%
[14]
  viability, T/C: 62.9%
Second compound 0.316 µM, first compound 0.000316 µM
  viability, T/C: 34%
Second compound 0.316 µM, first compound 0.001 µM
  viability, T/C: 35%
[15]
  viability, T/C: 32.3%
[16]
  viability, T/C: 30.9%
[17]
  viability, T/C: 31.3%
[18]
  viability, T/C: 26.8%
Second compound 1 µM, first compound 0.000316 µM
  viability, T/C: 4.47%
Second compound 1 µM, first compound 0.001 µM
  viability, T/C: 4.64%
[19]
  viability, T/C: 4.59%
[20]
  viability, T/C: 4.07%
[21]
  viability, T/C: 3.7%
[22]
  viability, T/C: 3.76%
Second compound 3.16 µM, first compound 0.000316 µM
  viability, T/C: 6.68%
Second compound 3.16 µM, first compound 0.001 µM
  viability, T/C: 7.67%
[23]
  viability, T/C: 6.68%
[24]
  viability, T/C: 5.7%
[25]
  viability, T/C: 5.67%
[26]
  viability, T/C: 5.8%
Second compound 10 µM, first compound 0.000316 µM
  viability, T/C: 0.94%
Second compound 10 µM, first compound 0.001 µM
  viability, T/C: 1.5%
[27]
  viability, T/C: 1.24%
[28]
  viability, T/C: 1.06%
[29]
  viability, T/C: 2.08%
[30]
  viability, T/C: 1.4%

## O=c1[nH]cc(F)c(=O)[nH]1
Compound 0.0316 µM
  viability, T/C: 103% and 83.7%
Compound 0.1 µM
  viability, T/C: 104% and 86%
Compound 0.316 µM
  viability, T/C: 95.3% and 77.2%
Compound 1 µM
  viability, T/C: 67.9% and 91.2%
Compound 3.16 µM
  viability, T/C: 56.6% and 65%
Compound 10 µM
  viability, T/C: 52.4% and 53.3%
Curve of compound
  IC50: > 10000 nM

## CCN1CCN(Cc2ccc(Nc3ncc(F)c(-c4cc(F)c5nc(C)n(C(C)C)c5c4)n3)nc2)CC1 + CN1CCN(c2cc(C(=O)Nc3cc4cc(-c5cnn(C)c5)ccc4cn3)ccn2)CC1
[1]
  IC50: > 1000 nM
[2]
  IC50: > 1000 nM
[3]
  IC50: < 3.16 nM
[4]
  IC50: < 3.16 nM
[5]
  IC50: < 3.16 nM
[6]
  IC50: < 3.16 nM
[7]
  viability, T/C: 89.9%
[8]
  viability, T/C: 109%
[9]
  viability, T/C: 101%
[10]
  viability, T/C: 109%
Second compound 0.0316 µM, first compound 0.316 µM
  viability, T/C: 122%
Second compound 0.0316 µM, first compound 1 µM
  viability, T/C: 138%
[11]
  viability, T/C: 91.7%
[12]
  viability, T/C: 83.6%
[13]
  viability, T/C: 95.5%
[14]
  viability, T/C: 96.3%
Second compound 0.1 µM, first compound 0.316 µM
  viability, T/C: 122%
Second compound 0.1 µM, first compound 1 µM
  viability, T/C: 123%
[15]
  viability, T/C: 39.4%
[16]
  viability, T/C: 40.8%
[17]
  viability, T/C: 48.7%
[18]
  viability, T/C: 54.3%
Second compound 0.316 µM, first compound 0.316 µM
  viability, T/C: 69.4%
Second compound 0.316 µM, first compound 1 µM
  viability, T/C: 61.1%
[19]
  viability, T/C: 5.41%
[20]
  viability, T/C: 4.89%
[21]
  viability, T/C: 5.53%
[22]
  viability, T/C: 6.44%
Second compound 1 µM, first compound 0.316 µM
  viability, T/C: 9.19%
Second compound 1 µM, first compound 1 µM
  viability, T/C: 9.16%
[23]
  viability, T/C: 6.93%
[24]
  viability, T/C: 7.07%
[25]
  viability, T/C: 6.34%
[26]
  viability, T/C: 7.18%
Second compound 3.16 µM, first compound 0.316 µM
  viability, T/C: 8.35%
Second compound 3.16 µM, first compound 1 µM
  viability, T/C: 8.64%
[27]
  viability, T/C: 2.36%
[28]
  viability, T/C: 1.58%
[29]
  viability, T/C: 1.75%
[30]
  viability, T/C: 1.54%
Second compound 10 µM, first compound 0.316 µM
  viability, T/C: 1.24%
Second compound 10 µM, first compound 1 µM
  viability, T/C: 0.71%
